From patent US20070066572A1, “Neuroprotection by positively-charged nitroxides” (priority 2005, published 2007) come the findings set out here.

The structures appear in SMILES notation.

For assay [1], the system named is Bovine aortic endothelial cells (BAECs). The experiment in a line: Glu/GO-induced caspase-3 activity (apoptosis) in BAECs. Type of assay: cell-based. On the procedure:
Cell line: Bovine aortic endothelial cells (BAECs; American Type Culture Collection) were grown to confluence in DMEM (Calbiochem; San Diego, Calif.) containing 10% fetal bovine serum (FBS; Invitrogen; Carlsbad, Calif.) insulin (10 μg/ml; Invitrogen), transferrin (5 μg/ml; Invitrogen), glutamine (4 mM; Sigma-Aldrich), penicillin (100 units/ml; Sigma-Aldrich) and streptomycin (100 μg/ml; Sigma-Aldrich) and were incubated at 37° C. in a humidified atmosphere of 5% CO2 and 95% air. The BAECs were used between passages four and twelve, as described by Balla G, et al., “Ferritin: a cytoprotective antioxidant strategem of endothelium,” J. Biol. Chem. 267:18148-18153 (1992). On the day of treatment, the medium was replaced with DMEM containing 2% FBS.
Glucose/Glucose Oxidase (Glu/GO): GO was obtained from Sigma Aldrich (Milwaukee, Wis.); 13-hydroperoxyoctadecadienoic acid (13-HpODE, a lipoxygenase-catalyzed oxidative metabolite of linolieic acid) and β-hydroxyoctadecadienoic acid (13-HODE, […]) were obtained from Cayman Chemical Co. (Ann Arbor, Mich.); 2′,7′-dichlorodihydrofluorescein diacetate (DCFH-DA) was obtained from Molecular Probes (Eugene, Oreg.); N-carbobenzoxyl-L-leucinyl-L-norleucinal (MG-132) was obtained from Biomol (Plymouth Meeting, Pa.); and clastolactacystin-α-lactone (Lac) was obtained from Sigma Aldrich.
BAECs were incubated with Glu/GO (20 μM), 13-HpODE (25 μM) or 13-HODE (25 μM) for different time periods (0, 2, 4, 8 or 16 hours).
Caspase-3 Activity: After treatment with Glu-GO and antioxidants, cells were washed twice with Dulbecco's phosphate-buffered saline (DPBS) and lysed with cell lysis buffer. Caspase-3 activity was measured with acetyl Asp-Glu-Val-Asp 7-amido-4-methylcoumarin (Ac-DEVD-AFC), as described in a kit from Sigma Aldrich. Caspase-3 hydrolyzes Ac-DEVD-AFC to release a fluorescent moiety, 7-amino-4-methylcoumarin (AMC). Briefly, treated cells were suspended in 100 μl of lysis buffer and passed through a 24-guage needle 10 times to ensure complete lysis. The resulting lysate was centrifuged at 4° C. at 10,000 rmp. […]

The subject of the next assay is hSOD1-G93A mice. The experiment in a line: In vivo attenuation of ALS symptoms in transgenic G93A-SOD1 mice. The settings on record: 40 mg/kg or about 1 mg/mouse/day in drinking water. An excerpt: Animal model: A transgenic mouse line overexpressing mutant G93A-SOD1 gene (TgN(SOD1-G93A)1Gur, herein called hSOD1-G93A, a high expression mouse line) and the mating pairs were purchased from Jackson Laboratory (Bar Harbor, Me.). Mice were housed and bred as described previously (Liu R, et al., “Enhanced oxygen radical production in a transgenic mouse model of familial amyotrophic lateral sclerosis,” Ann. Neurol. 44:763-70 (1998)) and in accordance with the University of North Dakota Animal Care and Use Committee guidelines.
At age 40-50 days, transgenic littermates (wild-type normal mice and hSOD1-G93A mice) were divided into three groups (n=10) and administered with vehicle alone (regular drinking water), Mito-Tempol (40 mg/kg or about 1 mg/mouse/day) or Tempol (40 mg/kg or about 1 mg/mouse/day), respectively. The onset of disease was defined as the day when a sharp decrease in muscle strength was detected. The initial symptoms of hind leg paralysis was considered as the disease progression as well.

Consider `CC1(C)CC(OCCCCC[P+](c2ccccc2)(c2ccccc2)c2ccccc2)CC(C)(C)N1[O].[Br-]` [Mito-Tempol], for which the “Glu/GO-mediated caspase-3 activation” value in assay [1] (BAECs pretreated at 0.5 and 1 μM, Glu/GO eight hours, FIG. 5) is “greatly inhibited”. Moreover, the “potency in inhibiting peroxide-induced apoptosis relative to Tempol” value in assay [1] (BAECs, Glu/GO, FIG. 5) is “more potent than Tempol”. Moreover, in assay [1] (Mito-Tempol prepared by the modified method), the “endothelial oxidative damage and apoptosis” value is “inhibited endothelial oxidative damage and apoptosis”. The disease progression entry in the assay with hSOD1-G93A mice (FIG. 2) is “delayed disease progression”. In addition, the lifespan entry in the assay with hSOD1-G93A mice (FIG. 3) is given as “increased the lifespan”. Also, the “running activity as measured by Rotarod (motor function)” value in the assay on hSOD1-G93A mice (FIG. 4) is on record as “promoted the running activity”.
